Series [1] has as its target Beta-2 adrenergic receptor (Homo sapiens, UniProt P07550). Nature of the series: DRUGMATRIX: Adrenergic beta2 radioligand binding (ligand: [3H] CGP-12177). The format is cell membranes, CHO, Membrane. Particulars: Not Active = under 50% inhibition at 10 µM.
Series [2] deals with 5-hydroxytryptamine receptor 6 (Homo sapiens, UniProt P50406). It is filed as cell membranes, HeLa, Membrane.
The target in series [3] is C-C chemokine receptor type 2 (Homo sapiens, UniProt P41597). It is filed as cell membranes, CHO-K1, Membrane. Particulars: cho-k1. Also: in other assays of this panel Not Active means under 50% inhibition at 10 µM.
C-C chemokine receptor type 2, sequence (P41597 whole entry): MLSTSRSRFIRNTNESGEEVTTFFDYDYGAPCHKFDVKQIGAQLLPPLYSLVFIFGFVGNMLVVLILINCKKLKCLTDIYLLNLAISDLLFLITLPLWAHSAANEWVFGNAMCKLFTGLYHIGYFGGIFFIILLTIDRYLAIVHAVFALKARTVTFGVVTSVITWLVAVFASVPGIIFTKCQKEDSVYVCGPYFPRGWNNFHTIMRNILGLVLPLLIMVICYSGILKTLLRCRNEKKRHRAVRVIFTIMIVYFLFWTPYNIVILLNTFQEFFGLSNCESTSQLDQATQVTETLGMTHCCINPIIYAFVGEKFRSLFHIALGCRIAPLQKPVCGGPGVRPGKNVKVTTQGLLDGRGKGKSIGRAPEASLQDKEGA
A short description of series [4]: DRUGMATRIX: Potassium Channel [KATP] radioligand binding (ligand: [3H] Glyburide). Particulars: hit-t15; Not Active = under 50% inhibition at 10 µM. The format is cell membranes, Membrane.
The target in series [5] is Epidermal growth factor receptor (Homo sapiens, UniProt P00533). The experiment in a line: DRUGMATRIX: Protein Tyrosine Kinase, EGF Receptor enzyme inhibition (substrate: Poly(Glu:Tyr)). The format is cell-based, Insect cells. Particulars: Not Active = under 50% inhibition at 10 µM.
The next series concerns the target Cytochrome P450 2C9 (Homo sapiens, UniProt P11712). The settings on record: bti-tn-5b1-4. Also: in other assays of this panel Not Active means under 50% inhibition at 10 µM.

Cytochrome P450 2C9, sequence (P11712 whole entry): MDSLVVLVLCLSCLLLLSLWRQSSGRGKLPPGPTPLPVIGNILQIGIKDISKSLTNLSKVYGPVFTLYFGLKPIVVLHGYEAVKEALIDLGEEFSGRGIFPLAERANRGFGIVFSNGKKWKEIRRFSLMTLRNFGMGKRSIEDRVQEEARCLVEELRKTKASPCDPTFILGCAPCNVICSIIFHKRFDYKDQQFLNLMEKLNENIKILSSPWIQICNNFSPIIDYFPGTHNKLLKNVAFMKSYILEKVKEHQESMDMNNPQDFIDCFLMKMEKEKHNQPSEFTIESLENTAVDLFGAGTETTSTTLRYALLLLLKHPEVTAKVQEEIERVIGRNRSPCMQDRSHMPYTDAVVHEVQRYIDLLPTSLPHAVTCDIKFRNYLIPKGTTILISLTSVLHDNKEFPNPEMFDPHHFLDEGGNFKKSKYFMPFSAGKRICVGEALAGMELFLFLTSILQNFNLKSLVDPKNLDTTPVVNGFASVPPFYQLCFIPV
5-hydroxytryptamine receptor 6, sequence (P50406 whole entry): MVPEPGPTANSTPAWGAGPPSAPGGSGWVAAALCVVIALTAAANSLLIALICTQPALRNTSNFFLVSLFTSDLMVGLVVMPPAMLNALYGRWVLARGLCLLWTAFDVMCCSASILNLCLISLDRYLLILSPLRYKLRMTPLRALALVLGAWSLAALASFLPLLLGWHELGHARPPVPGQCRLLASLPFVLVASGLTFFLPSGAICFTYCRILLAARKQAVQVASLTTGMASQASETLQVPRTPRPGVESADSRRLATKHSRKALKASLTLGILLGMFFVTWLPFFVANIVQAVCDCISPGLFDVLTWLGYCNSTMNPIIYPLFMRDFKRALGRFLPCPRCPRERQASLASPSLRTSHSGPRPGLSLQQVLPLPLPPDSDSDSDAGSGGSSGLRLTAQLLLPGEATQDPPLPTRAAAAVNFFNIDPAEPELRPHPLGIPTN

One may read the IC50 as the concentration at which inhibition is half-maximal. The term Ki denotes a dissociation constant, usually derived from enzyme kinetics or from competition with a known ligand. As to `C[C@@H](O)[C@H]1C(=O)N2C(C(=O)O)=C(S[C@@H]3CN[C@H](C(=O)N(C)C)C3)[C@H](C)[C@H]12` [MEROPENEM], the IC50 entry (in series [1] (cho); in series [2] (hela); in series [3]; in series [4]; in series [5] (insect cells); against Cytochrome P450 2C9) was “Not Active” in each case. The Ki entry (in series [4]; at Cytochrome P450 2C9) was “Not Active” each time.
For `O=P(O)(O)C(O)(Cc1cccnc1)P(=O)(O)O` [RISEDRONIC ACID], the IC50 result (in series [1] (cho); in series [2] (hela); in series [3]; in series [4]; in series [5] (insect cells); on Cytochrome P450 2C9) was “Not Active” each time. In addition, the Ki result (in series [4]; at Cytochrome P450 2C9) was “Not Active” throughout.
Consider `CN(CCOc1ccc(CC2SC(=O)NC2=O)cc1)c1ccccn1` (stereo not given) [ROSIGLITAZONE], for which the IC50 entry (in series [1] (cho); in series [2] (hela); in series [3]; in series [4]; in series [5] (insect cells); at Cytochrome P450 2C9) was “Not Active” throughout. The Ki result (in series [4]; at Cytochrome P450 2C9) was “Not Active” throughout.
Regarding `C=C(C)[C@H]1Cc2c(ccc3c2O[C@@H]2COc4cc(OC)c(OC)cc4[C@@H]2C3=O)O1` [ROTENONE], the IC50 entry in series [1] (cho) was “Not Active”; in series [2] (read-out: IC50), 0.87 µM; in series [3], “Not Active”; in series [4], “Not Active”; in series [5] (insect cells) it was “Not Active”; against Cytochrome P450 2C9, “Not Active”. The inhibitory constant (Ki) in series [2] (read-out: Ki) was 0.404 µM; in series [4], “Not Active”; at Cytochrome P450 2C9, “Not Active”.
`C#CCN(C)[C@H](C)Cc1ccccc1` [SELEGILINE]: the 50% inhibitory concentration (IC50) entry (in series [1] (cho); in series [2] (hela); in series [3]; in series [4]; in series [5] (insect cells); against Cytochrome P450 2C9) was “Not Active” throughout. Also, the Ki entry (in series [4]; at Cytochrome P450 2C9) was “Not Active” in each case.
In the case of `CN[C@@H]1[C@H](O)[C@H](NC)[C@H]2O[C@@]3(O)C(=O)C[C@@H](C)O[C@H]3O[C@@H]2[C@H]1O` [SPECTINOMYCIN], the IC50 result (in series [1] (cho); in series [2] (hela); in series [3]; in series [4]; in series [5] (insect cells); on Cytochrome P450 2C9) was “Not Active” each time. The Ki result (in series [4]; on Cytochrome P450 2C9) was “Not Active” each time.
With `Nc1ccc(S(=O)(=O)Nc2ncccn2)cc1` [SULFADIAZINE], the IC50 entry (in series [1] (cho); in series [2] (hela); in series [3]; in series [4]; in series [5] (insect cells); on Cytochrome P450 2C9) was “Not Active” each time. Moreover, the Ki entry (in series [4]; at Cytochrome P450 2C9) was “Not Active” each time.
Consider `COc1ncnc(NS(=O)(=O)c2ccc(N)cc2)c1OC` [SULFADOXINE], for which the IC50 entry (in series [1] (cho); in series [2] (hela); in series [3]; in series [4]; in series [5] (insect cells); against Cytochrome P450 2C9) was “Not Active” each time. The Ki entry (in series [4]; at Cytochrome P450 2C9) was “Not Active” each time.
With `Nc1ccc(S(=O)(=O)Nc2nccs2)cc1` [SULFATHIAZOLE], the IC50 result (in series [1] (cho); in series [2] (hela); in series [3]; in series [4]; in series [5] (insect cells); against Cytochrome P450 2C9) was “Not Active” in each case. For the same compound, the inhibition constant (Ki) result (in series [4]; on Cytochrome P450 2C9) was “Not Active” throughout.
As for `C[C@@H]1C[C@H]2[C@@H]3CCC4=CC(=O)C=C[C@]4(C)C3=CC[C@]2(C)[C@H]1C(=O)CN1CCN(c2cc(N3CCCC3)nc(N3CCCC3)n2)CC1` [TIRILAZAD], the IC50 in series [1] (read-out: IC50) is 22.7 µM; in series [2] (hela), “Not Active”; in series [3] it was “Not Active”; in series [4] it was “Not Active”; in series [5] (read-out: IC50) it was 20.4 µM; on Cytochrome P450 2C9 it was “Not Active”. For the same compound, the Ki is 15.6 µM in series [1] (read-out: Ki), “Not Active” in series [4] and “Not Active” on Cytochrome P450 2C9.
Consider `NC[C@H]1O[C@H](O[C@H]2[C@H](O)[C@@H](O[C@H]3O[C@H](CO)[C@@H](O)[C@H](N)[C@H]3O)[C@H](N)C[C@@H]2N)[C@H](N)C[C@@H]1O` [TOBRAMYCIN], for which the IC50 entry (in series [1] (cho); in series [2] (hela); in series [3]; in series [4]; in series [5] (insect cells); at Cytochrome P450 2C9) was “Not Active” throughout. Further, the Ki result (in series [4]; at Cytochrome P450 2C9) was “Not Active” each time.
For `O=C(O)C(Cl)(Cl)Cl` [TRICHLOROACETIC ACID], the IC50 entry (in series [1] (cho); in series [2] (hela); in series [3]; in series [4]; in series [5] (insect cells); on Cytochrome P450 2C9) was “Not Active” each time. Also, the inhibition constant (Ki) result (in series [4]; on Cytochrome P450 2C9) was “Not Active” throughout.
On to `CC(=O)O[C@H]1C[C@@H]2CC[C@@H]3[C@H](CC[C@@]4(C)[C@H]3C[C@H]([N+]3(C)CCCCC3)[C@@H]4OC(C)=O)[C@@]2(C)C[C@@H]1N1CCCCC1.[Br-]` [VECURONIUM BROMIDE], for which the IC50 entry (in series [1] (cho); in series [2] (hela); in series [3]; in series [4]; in series [5] (insect cells); against Cytochrome P450 2C9) was “Not Active” in each case. For the same compound, the Ki entry (in series [4]; at Cytochrome P450 2C9) was “Not Active” throughout.
STANNOUS FLUORIDE: the IC50 result (in series [1] (cho); in series [2] (hela); in series [3]; in series [4]; in series [5] (insect cells); on Cytochrome P450 2C9) was “Not Active” in each case. Also, the inhibition constant Ki entry (in series [1] (cho); in series [2] (hela); in series [3]; in series [4]; in series [5] (insect cells); on Cytochrome P450 2C9) was “Not Active” each time.
Consider THIMEROSAL, for which the IC50 entry in series [1] (cho) was “Not Active”; in series [2] (hela, read-out: IC50), 5.94 µM; in series [3] it was “Not Active”; in series [4], “Not Active”; in series [5] (insect cells), “Not Active”; on Cytochrome P450 2C9, “Not Active”. The Ki entry in series [1] (cho) was “Not Active”; in series [2] (hela, read-out: Ki) it was 2.76 µM; in series [3], “Not Active”; in series [4] it was “Not Active”; in series [5] (insect cells), “Not Active”; on Cytochrome P450 2C9, “Not Active”.

Source of the values: ChEMBL document CHEMBL1909046, “DrugMatrix in vitro pharmacology data”.
